Three molecules from ChEMBL document CHEMBL1148913, “Celogenamide A, a new cyclic peptide from the seeds of Celosia argentea” (J Nat Prod, 2004) can be followed below.

A value given as a limit tells only on which side of the number the result lay.

The experiment in a line: Inhibition of tubulin polymerization assessed as turbidity by microtubule assembly assay.

Take `COC(=O)[C@@H]1Cc2cn(c3ccccc23)[C@@H](NC(=O)[C@H](Cc2ccc(O)cc2)NC(=O)[C@@H]2CCCN2C(=O)[C@@H]2CCC(=O)N2)C(=O)N[C@@H](C(C)C)C(=O)N[C@@H](Cc2ccccc2)C(=O)N[C@@H](CO)C(=O)N1` [LYCIUMIN C]: the IC50 was greater than 100 µM. `COC(=O)[C@@H]1Cc2cn(c3ccccc23)[C@@H](NC(=O)[C@H](Cc2ccc(O)cc2)NC(=O)[C@@H]2CCCN2C(=O)[C@@H]2CCC(=O)N2)C(=O)N[C@@H](C(C)C)C(=O)NCC(=O)N[C@@H](CO)C(=O)N1` [LYCLUMIN A]: the IC50 is greater than 100 µM. Under `CC(C)[C@@H]1NC(=O)[C@H](NC(=O)[C@H](Cc2ccc(O)cc2)NC(=O)[C@@H]2CCCN2C(=O)[C@@H]2CCC(=O)N2)n2cc(c3ccccc32)C[C@@H](C(=O)N[C@@H](CCCCN)C(=O)O)NC(=O)[C@H](CO)NC(=O)[C@H](Cc2ccccc2)NC1=O` [CELOGENAMIDE A] stands greater than 100 µM.
